Results from ChEMBL document CHEMBL1201862, “PubChem BioAssay data set” (2004).
Calls of active or inactive are those of the source.

Experiments:
[1] = (§1) Counterscreen for antagonists of the orexin 1 receptor (OX1R; HCRTR1): Fluorescence-based cell-based high throughput dose response assay to identify antagonists of the parental CHO cell line. [Related pubchem assays (depositor defined):AID434989, AID435008, AID463079, AID485270, AID492963, AID492964, AID492965, AID493232, AID504699, AID504701]; format: functional
Orexin receptor type 2 [2] = target: T1, Orexin receptor type 2 (Homo sapiens, UniProt O43614); assay: Counterscreen assay for antagonists of the orexin 1 receptor (OX1R; HCRTR1): Homogeneous Time Resolved Fluorescence (HTRF)-based cell-based dose response assay for antagonists of the orexin 2 receptor (OX2R; HCRTR2), run by assay provider.; format: functional
T1 sequence (O43614 whole entry): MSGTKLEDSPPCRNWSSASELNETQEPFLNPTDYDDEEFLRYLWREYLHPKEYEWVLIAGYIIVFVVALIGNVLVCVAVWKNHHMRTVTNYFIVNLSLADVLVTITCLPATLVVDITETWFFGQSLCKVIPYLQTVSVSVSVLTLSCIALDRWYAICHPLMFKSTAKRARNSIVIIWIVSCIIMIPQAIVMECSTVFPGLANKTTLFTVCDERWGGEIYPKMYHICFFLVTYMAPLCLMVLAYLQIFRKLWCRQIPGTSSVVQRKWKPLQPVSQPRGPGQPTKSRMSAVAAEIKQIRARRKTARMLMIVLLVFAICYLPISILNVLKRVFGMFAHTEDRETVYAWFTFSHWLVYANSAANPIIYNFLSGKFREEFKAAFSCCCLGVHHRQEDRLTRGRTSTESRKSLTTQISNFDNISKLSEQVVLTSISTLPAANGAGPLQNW

[3] = target: T2, Orexin/Hypocretin receptor type 1 (Homo sapiens, UniProt O43613); assay: Homogeneous Time Resolved Fluorescence (HTRF)-based cell-based high throughput dose response assay for antagonists of the orexin 1 receptor (OX1R; HCRTR1). [Related pubchem assays (depositor defined):AID434989, AID435008, AID463079, AID485270, AID492963, AID492964, AID492965, AID493232, AID504717, AID504718]; format: functional
T2 sequence (O43613 whole entry): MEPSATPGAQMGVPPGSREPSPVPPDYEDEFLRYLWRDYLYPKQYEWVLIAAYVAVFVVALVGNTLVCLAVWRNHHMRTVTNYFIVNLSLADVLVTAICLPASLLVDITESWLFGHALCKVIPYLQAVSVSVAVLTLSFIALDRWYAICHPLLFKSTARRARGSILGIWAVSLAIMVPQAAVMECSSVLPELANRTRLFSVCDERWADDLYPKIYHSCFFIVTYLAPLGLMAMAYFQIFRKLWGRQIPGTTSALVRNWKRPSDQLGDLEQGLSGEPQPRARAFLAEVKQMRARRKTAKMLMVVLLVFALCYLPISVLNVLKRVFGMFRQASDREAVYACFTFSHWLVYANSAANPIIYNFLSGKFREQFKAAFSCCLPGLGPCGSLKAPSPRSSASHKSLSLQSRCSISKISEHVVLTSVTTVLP

[4] = target: T2, Orexin/Hypocretin receptor type 1; assay: Fluorescence-based cell-based high throughput dose response assay for antagonists of the orexin 1 receptor (OX1R; HCRTR1). [Related pubchem assays (depositor defined):AID434989, AID435008, AID463079, AID485270, AID492963, AID492964, AID492965, AID493232, AID504717, AID504718]; format: functional
CHO-K1 = assay: as §1, with “Homogeneous time resolved fluorescence (HTRF)-based” for “Fluorescence-based”, “cell-based” for “cell-based high throughput”, “CHO-K1” for “CHO”; format: functional; details: Cricetulus griseus;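 also: potency for inhibition of ATP-stimulated IP1 production as antagonists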
Orexin receptor type 2 [5] = target: T1, Orexin receptor type 2; assay: Counterscreen assay for antagonists of the orexin 1 receptor (OX1R; HCRTR1): Fluorescence-based cell-based dose response assay for antagonists of the orexin 2 receptor (OX2R; HCRTR2), run by assay provider.; format: functional
Melanocortin receptor 4 = Melanocortin receptor 4 (Homo sapiens, UniProt P32245); assay: inhibitors of MC4R cAMP signaling – cell-based, TR-FRET, biased antagonists, dose response (AID 602298); format: functional;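 also: antagonist potency against agonist-stimulated cAMP production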
[6] = cAMP pathway inhibition in counterscreen cell line – TR-FRET cAMP detection, counter-screen for MC4R biased antagonist project, dose response (AID 602305); format: functional, cell-based;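 also: U2OS cells stimulated with forskolin near its EC80 as the cAMP inducer; potency is for inhibition of forskolin-stimulated cAMP signaling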
cells = format: functional
[7] = THP-1 cell cytotoxicity, dose response, cytotoxicity control for non-replicating M. tuberculosis project (AID 489025); format: functional
[8] = target: T3, High affinity choline transporter 1 (Homo sapiens, UniProt Q9GZV3); assay: human choline transporter potentiators, potency – cell-based, 10-point CRC, membrane potential dye, dose response (AID 602376); format: functional
T3 sequence (Q9GZV3 whole entry): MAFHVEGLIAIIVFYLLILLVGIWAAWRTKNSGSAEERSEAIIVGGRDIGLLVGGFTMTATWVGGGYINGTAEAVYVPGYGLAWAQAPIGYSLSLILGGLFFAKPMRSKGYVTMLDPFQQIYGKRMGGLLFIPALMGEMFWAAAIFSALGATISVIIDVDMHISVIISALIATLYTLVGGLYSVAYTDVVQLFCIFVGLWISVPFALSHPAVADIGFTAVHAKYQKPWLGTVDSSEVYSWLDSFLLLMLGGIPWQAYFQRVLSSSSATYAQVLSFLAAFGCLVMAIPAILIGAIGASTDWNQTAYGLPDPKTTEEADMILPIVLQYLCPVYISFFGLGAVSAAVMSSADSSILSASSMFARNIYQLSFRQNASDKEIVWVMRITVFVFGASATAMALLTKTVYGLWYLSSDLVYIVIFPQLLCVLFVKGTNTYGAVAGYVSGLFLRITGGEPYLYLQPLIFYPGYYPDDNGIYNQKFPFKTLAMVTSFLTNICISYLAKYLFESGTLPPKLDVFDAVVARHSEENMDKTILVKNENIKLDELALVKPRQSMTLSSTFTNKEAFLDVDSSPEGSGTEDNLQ

[9] = target: T4, Sentrin-specific protease 7 (Homo sapiens, UniProt Q9BQF6); assay: inhibition of human SENP7 cleavage activity – biochemical, luminescence, SAR follow-up (AID 504497); format: functional
T4 sequence (Q9BQF6 whole entry): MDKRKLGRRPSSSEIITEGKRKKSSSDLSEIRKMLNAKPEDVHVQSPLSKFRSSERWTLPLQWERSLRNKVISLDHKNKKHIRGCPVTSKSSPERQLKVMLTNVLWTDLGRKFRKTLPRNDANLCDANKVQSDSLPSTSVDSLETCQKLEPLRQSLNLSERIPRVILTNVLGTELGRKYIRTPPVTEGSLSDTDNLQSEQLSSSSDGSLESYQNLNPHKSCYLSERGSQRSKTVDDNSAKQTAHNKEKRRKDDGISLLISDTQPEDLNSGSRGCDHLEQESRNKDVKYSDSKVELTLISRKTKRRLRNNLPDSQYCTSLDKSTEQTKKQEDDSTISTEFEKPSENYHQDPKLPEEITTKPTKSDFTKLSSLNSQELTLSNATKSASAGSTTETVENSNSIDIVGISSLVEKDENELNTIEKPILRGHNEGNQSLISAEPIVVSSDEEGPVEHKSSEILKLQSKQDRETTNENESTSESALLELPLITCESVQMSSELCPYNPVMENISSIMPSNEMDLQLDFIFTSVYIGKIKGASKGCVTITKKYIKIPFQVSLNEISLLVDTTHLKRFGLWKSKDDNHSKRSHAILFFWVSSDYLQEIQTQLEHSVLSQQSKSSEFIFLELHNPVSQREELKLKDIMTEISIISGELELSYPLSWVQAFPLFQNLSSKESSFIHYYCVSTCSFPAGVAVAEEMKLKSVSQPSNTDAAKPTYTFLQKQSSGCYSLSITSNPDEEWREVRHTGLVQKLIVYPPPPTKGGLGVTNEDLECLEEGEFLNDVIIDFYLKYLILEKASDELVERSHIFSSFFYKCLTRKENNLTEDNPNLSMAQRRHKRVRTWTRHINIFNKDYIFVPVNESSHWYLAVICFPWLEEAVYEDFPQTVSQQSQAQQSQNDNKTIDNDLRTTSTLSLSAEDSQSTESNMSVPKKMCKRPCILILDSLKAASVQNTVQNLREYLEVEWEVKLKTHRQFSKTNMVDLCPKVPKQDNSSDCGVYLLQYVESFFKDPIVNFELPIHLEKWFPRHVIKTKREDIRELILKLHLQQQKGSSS

[10] = target: T5, Sentrin-specific protease 6 (Homo sapiens, UniProt Q9GZR1); assay: SAR Analysis of small molecule inhibitors of Sentrin-specific protease 6 (SENP6) using a Luminescent assay. [Related pubchem assays (depositor defined):AID2582, AID2599]; format: functional
T5 sequence (Q9GZR1 whole entry): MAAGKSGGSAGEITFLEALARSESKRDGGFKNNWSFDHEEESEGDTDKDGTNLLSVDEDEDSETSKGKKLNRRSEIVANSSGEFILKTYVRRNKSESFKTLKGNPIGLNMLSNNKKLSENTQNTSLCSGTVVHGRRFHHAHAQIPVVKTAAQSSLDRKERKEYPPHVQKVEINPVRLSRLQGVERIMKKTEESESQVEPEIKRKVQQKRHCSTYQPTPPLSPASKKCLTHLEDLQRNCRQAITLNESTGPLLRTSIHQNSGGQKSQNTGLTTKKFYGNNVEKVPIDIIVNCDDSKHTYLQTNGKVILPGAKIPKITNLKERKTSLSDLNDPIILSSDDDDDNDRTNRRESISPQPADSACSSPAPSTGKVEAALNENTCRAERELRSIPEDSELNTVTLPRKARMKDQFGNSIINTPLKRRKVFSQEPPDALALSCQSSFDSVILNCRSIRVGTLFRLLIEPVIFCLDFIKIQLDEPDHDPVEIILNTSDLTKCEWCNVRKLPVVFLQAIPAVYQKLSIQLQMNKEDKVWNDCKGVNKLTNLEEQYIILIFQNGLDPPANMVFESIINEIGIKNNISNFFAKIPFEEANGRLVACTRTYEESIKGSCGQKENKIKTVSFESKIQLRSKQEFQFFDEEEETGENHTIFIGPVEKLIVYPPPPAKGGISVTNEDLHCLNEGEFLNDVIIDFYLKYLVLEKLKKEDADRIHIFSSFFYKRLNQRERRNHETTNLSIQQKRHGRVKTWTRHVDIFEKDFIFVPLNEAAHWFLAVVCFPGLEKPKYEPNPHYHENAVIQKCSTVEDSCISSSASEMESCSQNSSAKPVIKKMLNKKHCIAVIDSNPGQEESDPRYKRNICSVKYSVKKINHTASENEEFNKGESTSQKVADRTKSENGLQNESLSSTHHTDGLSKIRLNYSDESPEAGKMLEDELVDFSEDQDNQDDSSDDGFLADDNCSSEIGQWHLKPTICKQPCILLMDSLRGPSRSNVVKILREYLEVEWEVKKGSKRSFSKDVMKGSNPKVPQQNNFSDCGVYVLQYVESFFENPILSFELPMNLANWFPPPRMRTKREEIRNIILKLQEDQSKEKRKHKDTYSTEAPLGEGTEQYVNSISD

Caspase-3 = target: T6, Caspase-3 (Homo sapiens, UniProt P42574); assay: SAR Analysis of small molecule inhibitors of Sentrin-specific proteases (SENPs) using a Caspase-3 Selectivity assay. [Related pubchem assays (depositor defined):AID2540, AID2599, AID434973, AID489001]; format: functional
T6 sequence (P42574 whole entry): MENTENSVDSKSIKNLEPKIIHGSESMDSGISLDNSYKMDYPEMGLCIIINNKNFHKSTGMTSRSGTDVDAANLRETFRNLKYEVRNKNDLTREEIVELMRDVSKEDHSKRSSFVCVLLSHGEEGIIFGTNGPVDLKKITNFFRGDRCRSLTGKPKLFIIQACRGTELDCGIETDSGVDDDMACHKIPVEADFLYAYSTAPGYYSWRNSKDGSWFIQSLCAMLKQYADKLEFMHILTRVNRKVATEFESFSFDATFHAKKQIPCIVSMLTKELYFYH

[11] = target: T7, Sentrin-specific protease 8 (Homo sapiens, UniProt Q96LD8); assay: inhibition of human SENP8 cleavage activity – biochemical, luminescence, SAR follow-up (AID 504501); format: functional
T7 sequence (Q96LD8 whole entry): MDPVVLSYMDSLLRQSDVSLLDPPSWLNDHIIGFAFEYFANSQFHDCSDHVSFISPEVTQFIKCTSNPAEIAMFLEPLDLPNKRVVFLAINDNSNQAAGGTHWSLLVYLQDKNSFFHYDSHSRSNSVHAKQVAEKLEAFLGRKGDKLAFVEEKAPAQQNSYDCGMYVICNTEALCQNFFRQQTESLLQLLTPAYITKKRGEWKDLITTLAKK

[12] = target: DNA dC->dU-editing enzyme APOBEC-3G (Homo sapiens, UniProt Q9HC16); assay: inhibition of APOBEC3G ssDNA deamination – biochemical, fluorescence, single-stranded DNA substrate, SAR follow-up (AID 602136); format: functional; details: read-out: IC50_Mean
[13] = target: DNA dC->dU-editing enzyme APOBEC-3A (Homo sapiens, UniProt P31941); assay: SAR analysis of small molecule inhibitors of APOBEC3A DNA Deaminase via a fluorescence-based single-stranded DNA deaminase assay.; format: functional; details: read-out: IC50_Mean
Chain of DNA dC->dU-editing enzyme APOBEC-3A (P31941 whole entry): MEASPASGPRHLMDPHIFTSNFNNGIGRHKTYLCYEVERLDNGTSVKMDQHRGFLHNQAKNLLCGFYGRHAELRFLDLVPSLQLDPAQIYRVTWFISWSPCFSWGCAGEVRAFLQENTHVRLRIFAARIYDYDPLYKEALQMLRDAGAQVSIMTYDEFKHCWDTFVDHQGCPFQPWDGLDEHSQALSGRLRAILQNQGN

Chain of Melanocortin receptor 4 (P32245 whole entry): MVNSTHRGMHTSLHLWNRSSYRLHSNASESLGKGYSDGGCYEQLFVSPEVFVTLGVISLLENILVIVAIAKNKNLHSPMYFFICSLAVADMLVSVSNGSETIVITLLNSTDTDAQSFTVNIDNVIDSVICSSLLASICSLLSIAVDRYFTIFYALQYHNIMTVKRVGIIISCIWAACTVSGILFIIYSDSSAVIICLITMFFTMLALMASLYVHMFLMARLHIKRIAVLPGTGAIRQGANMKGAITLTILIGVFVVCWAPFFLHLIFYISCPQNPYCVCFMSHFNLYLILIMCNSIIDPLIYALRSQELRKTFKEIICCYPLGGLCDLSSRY
Chain of DNA dC->dU-editing enzyme APOBEC-3G (Q9HC16 whole entry): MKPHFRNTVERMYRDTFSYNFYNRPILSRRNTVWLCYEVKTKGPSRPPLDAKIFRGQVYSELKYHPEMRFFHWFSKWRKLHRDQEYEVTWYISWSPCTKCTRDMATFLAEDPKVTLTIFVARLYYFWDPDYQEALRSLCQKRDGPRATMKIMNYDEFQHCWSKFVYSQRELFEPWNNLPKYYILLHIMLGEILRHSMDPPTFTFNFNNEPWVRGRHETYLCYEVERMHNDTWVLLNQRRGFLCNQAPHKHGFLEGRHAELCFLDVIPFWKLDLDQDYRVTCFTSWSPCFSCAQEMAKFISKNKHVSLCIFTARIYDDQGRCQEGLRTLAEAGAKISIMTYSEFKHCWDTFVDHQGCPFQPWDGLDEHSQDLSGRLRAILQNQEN

O=C(OCC#CCSc1nnc(-c2cccc3ccccc23)o1)c1cccc2[nH]ccc12
IC50 [1]: > 49.8 µM (inactive) | IC50 (Orexin receptor type 2 [2]): 1.39 µM (active) | IC50 [3]: 0.506 µM (active) | IC50 [4]: 14 µM (inactive) | IC50 (CHO-K1): > 66.2 µM (inactive) | IC50 (Orexin receptor type 2 [5]): > 88.8 µM (inactive)

CN(c1ccc(OCC(=O)OCC(=O)Nc2ccc(Br)cc2)cc1)S(=O)(=O)c1cccs1
IC50 (Melanocortin receptor 4): > 64.6 µM (inactive) | IC50 [6]: > 64.6 µM (inactive)

c1coc(CNc2nc(N3CCCCC3)nc3ccccc23)c1
IC50 (cells): 6.64 µM (active) | CC50 [7]: 19.6 µM (active) | EC50 [8]: 1.79 µM (active)

O=C(NCCCN1CCN(CCCNC(=O)c2cccc(Cl)c2)CC1)c1cccc(Cl)c1
EC50 [8]: 9.44 µM (active)

CCOc1ccc(C(=O)Nc2ccc3ccccc3c2)cc1Cl
IC50 [9]: > 99 µM (inactive) | IC50 [10]: > 99 µM (inactive) | IC50 (Caspase-3): > 99 µM (inactive) | IC50 [11]: > 99 µM (inactive)

COc1cccc(/C=N/NC(=O)c2nnn(-c3nonc3N)c2CN(C)c2ccccc2)c1
IC50 [1]: > 49.7 µM (inactive) | IC50 (Orexin receptor type 2 [2]): 5.39 µM (active) | IC50 [3]: 0.513 µM (active) | IC50 [4]: 5.95 µM (active) | IC50 (CHO-K1): > 66.2 µM (inactive) | IC50 (Orexin receptor type 2 [5]): > 88.8 µM (inactive)

CS(=O)(=O)N1CCC(C(=O)Nc2cc(C(F)(F)F)ccc2N2CCOCC2)CC1
IC50 [12]: > 99 µM (inactive) | IC50 [13]: > 99 µM (inactive)
